The source of these data is paper PMC2585982 (Toxicology and applied pharmacology, 2008).

One series concerns rat PXR. The settings on record: read-out: EC50, activation of rat PXR; ref Yang and Yan, 2007; cited from earlier work.
In a further series the test system is human PXR. The settings on record: read-out: EC50, activation of human PXR; ref Yang and Yan, 2007; cited from earlier work.
Series [1] deals with P450s 2B9/10. The following applies: mouse, in vivo; cited from earlier work.
A further series has as its system NQO. Kind of series: Liver cytosolic NQO activity. The format is in vivo, mice. The settings on record: female SENCAR mice, 35, 70, 150 mg/kg p.o. 4 days, vs corn oil.
The next series concerns P450 1A1/1A2. The settings on record: mouse, in vivo.
Series [2] has as its system P450s 2B9/10. Nature of the series: Liver microsomal P450 2B activity. The settings on record: mouse, in vivo. It counts as in vivo, mice.
The next series relates to P450 3A11. Nature of the series: Liver microsomal P450 3A activity. The following applies: mouse, in vivo. The format is in vivo, mice.
Another series deals with P450 2B10. The following applies: mouse, in vivo.
In the next series the test system is GSTπ. Kind of series: Western blot of liver cytosol, GSTπ protein expression. The following applies: SENCAR mice, 35, 70, 150 mg/kg p.o. It counts as in vivo.
The test system of another series is GSTα. Nature of the series: Western blot of liver cytosol, GSTα protein expression. The format is in vivo. The settings on record: SENCAR mice, 35, 70, 150 mg/kg p.o., particularly at the highest doses.
The next series concerns GSTμ. Kind of series: Western blot of liver cytosol, GSTμ protein expression. The format is in vivo, mice. The settings on record: SENCAR mice, 35, 70, 150 mg/kg p.o.
A further series concerns P450s 1A1/2. Kind of series: Liver microsomal P450 1A activity. It counts as in vivo, mice. The following applies: mouse, in vivo.
For series [3], the system named is GST (cumene hydroperoxide). Nature of the series: Liver GST activity, cumene hydroperoxide as substrate, after oral dosing of mice. The following applies: female SENCAR mice, even at the highest doses, data not shown. It counts as in vivo.
The next series relates to P450 2B. The following applies: cited from earlier work.

Regarding `COc1c2occc2cc2ccc(=O)oc12` [8-methoxypsoralen], the EC50 in the series with rat PXR and in the series with human PXR was 14 µM each time.

Turning to `CC(C)=CCOc1c2occc2cc2ccc(=O)oc12` [imperatorin], in the series with P450s 2B9/10 [1], the “Hepatic P450 2B9/10 activity at 1 h after the final dose” value is reported as “no elevation” and the “Increase in hepatic P450 2B9/10 activity at 24 h after the final dose” value is reported as 100 fold. Also, the “Liver cytosolic NQO activity, dose-response study” value with NQO was “increased at all doses”. For the same compound, the “P450 1A1/1A2 protein levels, dose-response study” value in the series with P450 1A1/1A2 was “elevated”. In addition, in the series on P450s 2B9/10 [2], the “Increase in P450 2B9/10 enzyme activity, dose-response study” value is ~ 100 fold and the “P450 2B activity, liver microsomes, dose-response study” value is recorded as “significant increases”. Also, the “P450 3A activity, liver microsomes, dose-response study” value with P450 3A11 is listed as “increased”. In the series on P450 2B10, the “Increase in P450 2B9/10 protein expression (optical density), dose-response study” value is reported as 1.5–2 fold and the “P450 2B10 protein levels, dose-response study” value is on record as “significantly elevated”. For the same compound, the “Hepatic expression of GST π protein, dose-response study” value with GSTπ was “modest increase”. The “Hepatic expression of GST α protein, dose-response study” value with GSTα is given as “greatly increased”. Also, the “Hepatic expression of GST μ protein, dose-response study” value in the series with GSTμ was “no increase”. Moreover, in the series on P450s 1A1/2, the “P450 1 activity, liver microsomes, dose-response study” value was “significant increases”. In [3], the “GST activity using cumene hydroperoxide as a substrate” value was “no differences”. Further, the “Potency at blocking P450 2B activity relative to isopimpinellin” value with P450 2B was 10–100 times.
